Reference: patent US10004701B2, “Methods and compositions for treating infection” (UNIVERSITY OF ROCHESTER, priority 2012, dated 2018)
Structures can show the parent of a compound that is named as a salt. Where two headings read alike, the source gives them in different places.

Key:
Test in all cases: AK assay 384-well format, Prestwick library screening
[1] = system: A. baumannii strain 98-37-09; type: cell-based, Acinetobacter baumannii; conditions: 50 μM final drug concentration; for fold induction at 50 µM: Acinetobacter baumannii, 983709, 3 h
[2] = system: S. aureus strain USA300-0114; type: cell-based, Staphylococcus aureus; conditions: 50 μM final drug concentration; for fold induction at 50 µM: Staphylococcus aureus, USA300, 3 h
E. coli = type: cell-based, Escherichia coli; conditions: 50 μM final drug concentration; for fold induction at 50 µM: Escherichia coli, 3 h
K. pneumoniae = type: cell-based, Klebsiella pneumoniae; conditions: 50 μM final drug concentration; for fold induction at 50 µM: Klebsiella pneumoniae, 3 h
E. faecium = type: cell-based, Enterococcus faecium; conditions: 50 μM final drug concentration; for fold induction at 50 µM: Enterococcus faecium, 3 h
E. cloacae = type: cell-based, Enterobacter cloacae; conditions: 50 μM final drug concentration; for fold induction at 50 µM: Enterobacter cloacae, 3 h
P. aeruginosa = type: cell-based, Pseudomonas aeruginosa; conditions: 50 μM final drug concentration; for fold induction at 50 µM: Pseudomonas aeruginosa, 3 h
[3] = planktonic, cutoff for positive-scoring molecules 3-fold increase, read-out: AK-based Prestwick Library Screening Results, A. baumannii (fold increase in extracellular AK activity)
[4] = planktonic, cutoff for positive-scoring molecules 3-fold increase, read-out: AK-based Prestwick Library Screening Results, S. aureus (fold increase in extracellular AK activity)
[5] = planktonic, cutoff for positive-scoring molecules 3-fold increase, read-out: AK-based Prestwick Library Screening Results, E. coli (fold increase in extracellular AK activity)
[6] = planktonic, cutoff for positive-scoring molecules 3-fold increase, read-out: AK-based Prestwick Library Screening Results, K. pneumoniae (fold increase in extracellular AK activity)
[7] = planktonic, cutoff for positive-scoring molecules 3-fold increase, read-out: AK-based Prestwick Library Screening Results, E. faecium (fold increase in extracellular AK activity)
[8] = planktonic, cutoff for positive-scoring molecules 3-fold increase, read-out: AK-based Prestwick Library Screening Results, E. cloacae (fold increase in extracellular AK activity)
[9] = planktonic, cutoff for positive-scoring molecules 3-fold increase, read-out: AK-based Prestwick Library Screening Results, P. aeruginosa (fold increase in extracellular AK activity)
[10] = cutoff for positive-scoring molecules 3-fold increase, read-out: AK-based Prestwick Library Screening Results, A. baumannii (fold increase in extracellular AK activity)
[11] = cutoff for positive-scoring molecules 3-fold increase, read-out: AK-based Prestwick Library Screening Results, S. aureus (fold increase in extracellular AK activity)
[12] = cutoff for positive-scoring molecules 3-fold increase, read-out: AK-based Prestwick Library Screening Results, E. coli (fold increase in extracellular AK activity)
[13] = cutoff for positive-scoring molecules 3-fold increase, read-out: AK-based Prestwick Library Screening Results, K. pneumoniae (fold increase in extracellular AK activity)
[14] = cutoff for positive-scoring molecules 3-fold increase, read-out: AK-based Prestwick Library Screening Results, E. faecium (fold increase in extracellular AK activity)
[15] = cutoff for positive-scoring molecules 3-fold increase, read-out: AK-based Prestwick Library Screening Results, E. cloacae (fold increase in extracellular AK activity)
[16] = cutoff for positive-scoring molecules 3-fold increase, read-out: AK-based Prestwick Library Screening Results, P. aeruginosa (fold increase in extracellular AK activity)
[17] = cutoff for positive-scoring molecules 3-fold increase

CCc1cc(C(N)=S)ccn1 [Ethionamide]
fold induction at 50 µM ([1]; planktonic, cutoff for positive 3-fold increase, read-out: AK-based Prestwick Library Screening Results, A. baumannii (fold increase in extracellular AK activity)): 1.2
fold induction at 50 µM ([2]; planktonic, cutoff for positive 3-fold increase, read-out: AK-based Prestwick Library Screening Results, S. aureus (fold increase in extracellular AK activity)): 1.3
fold induction at 50 µM (E. coli; planktonic, cutoff for positive 3-fold increase, read-out: AK-based Prestwick Library Screening Results, E. coli (fold increase in extracellular AK activity)): 1.1
fold induction at 50 µM (K. pneumoniae; planktonic, cutoff for positive 3-fold increase, read-out: AK-based Prestwick Library Screening Results, K. pneumoniae (fold increase in extracellular AK activity)): 1
fold induction at 50 µM (E. faecium; planktonic, cutoff for positive 3-fold increase, read-out: AK-based Prestwick Library Screening Results, E. faecium (fold increase in extracellular AK activity)): 1
fold induction at 50 µM (E. cloacae; planktonic, cutoff for positive 3-fold increase, read-out: AK-based Prestwick Library Screening Results, E. cloacae (fold increase in extracellular AK activity)): 1.4
fold induction at 50 µM (P. aeruginosa; planktonic, cutoff for positive 3-fold increase, read-out: AK-based Prestwick Library Screening Results, P. aeruginosa (fold increase in extracellular AK activity)): 1.1

C#C[C@]1(O)CC[C@H]2[C@@H]3CCC4=CC(=O)CC[C@]4(C)[C@H]3CC[C@@]21C [Ethisterone]
fold induction at 50 µM ([1]; 384-well format, […], read-out: AK-based Prestwick Library Screening Results, A. baumannii (increase in extracellular AK activity)): 0.9
fold induction at 50 µM ([2]; 384-well format, […], read-out: AK-based Prestwick Library Screening Results, S. aureus (increase in extracellular AK activity)): 0.8
fold induction at 50 µM (E. coli; 384-well format, […], read-out: AK-based Prestwick Library Screening Results, E. coli (increase in extracellular AK activity)): 1
fold induction at 50 µM (K. pneumoniae; 384-well format, […], read-out: AK-based Prestwick Library Screening Results, K. pneumoniae (increase in extracellular AK activity)): 0.8
fold induction at 50 µM (E. faecium; 384-well format, […], read-out: AK-based Prestwick Library Screening Results, E. faecium (increase in extracellular AK activity)): 0.9
fold induction at 50 µM (E. cloacae; 384-well format, […], read-out: AK-based Prestwick Library Screening Results, E. cloacae (increase in extracellular AK activity)): 1.1
fold induction at 50 µM (P. aeruginosa; 384-well format, […], read-out: AK-based Prestwick Library Screening Results, P. aeruginosa (increase in extracellular AK activity)): 1

CCN(CC)C(C)CN1c2ccccc2Sc2ccccc21 (stereo not shown) [Ethopropazine hydrochloride]
fold induction at 50 µM [1, 3]: 1
fold induction at 50 µM [2, 4]: 0.7
fold induction at 50 µM (E. coli; [5]): 0.9
fold induction at 50 µM (K. pneumoniae; [6]): 0.8
fold induction at 50 µM (E. faecium; [7]): 0.9
fold induction at 50 µM (E. cloacae; [8]): 1.3
fold induction at 50 µM (P. aeruginosa; [9]): 1

CCC1(C)CC(=O)NC1=O (stereo not shown) [Ethosuximide]
fold induction at 50 µM ([1]; 384-well format, cutoff for positive-scoring molecules 3-fold increase, read-out: AK-based Prestwick Library Screening Results, A. baumannii (increase in extracellular AK activity)): 0.5
fold induction at 50 µM ([2]; 384-well format, cutoff for positive-scoring molecules 3-fold increase, read-out: AK-based Prestwick Library Screening Results, S. aureus (increase in extracellular AK activity)): 0.5
fold induction at 50 µM (E. coli; 384-well format, cutoff for positive-scoring molecules 3-fold increase, read-out: AK-based Prestwick Library Screening Results, E. coli (increase in extracellular AK activity)): 0.6
fold induction at 50 µM (K. pneumoniae; 384-well format, cutoff for positive-scoring molecules 3-fold increase, read-out: AK-based Prestwick Library Screening Results, K. pneumoniae (increase in extracellular AK activity)): 0.6
fold induction at 50 µM (E. faecium; 384-well format, cutoff for positive-scoring molecules 3-fold increase, read-out: AK-based Prestwick Library Screening Results, E. faecium (increase in extracellular AK activity)): 0.9
fold induction at 50 µM (E. cloacae; 384-well format, cutoff for positive-scoring molecules 3-fold increase, read-out: AK-based Prestwick Library Screening Results, E. cloacae (increase in extracellular AK activity)): 0.6
fold induction at 50 µM (P. aeruginosa; 384-well format, cutoff for positive-scoring molecules 3-fold increase, read-out: AK-based Prestwick Library Screening Results, P. aeruginosa (increase in extracellular AK activity)): 0.5

CCN1C(=O)NC(c2ccccc2)C1=O (stereo not shown) [Ethotoin]
fold induction at 50 µM [1, 10]: 1.1
fold induction at 50 µM [2, 11]: 1.2
fold induction at 50 µM (E. coli; [12]): 1.2
fold induction at 50 µM (K. pneumoniae; [13]): 1
fold induction at 50 µM (E. faecium; [14]): 1
fold induction at 50 µM (E. cloacae; [15]): 1.6
fold induction at 50 µM (P. aeruginosa; [16]): 0.9

CCOc1ccc2c(c1)C(C)=CC(C)(C)N2 [Ethoxyquin]
fold induction at 50 µM [1, 3]: 0.9
fold induction at 50 µM [2, 4]: 1.1
fold induction at 50 µM (E. coli; [5]): 1.1
fold induction at 50 µM (K. pneumoniae; [6]): 0.9
fold induction at 50 µM (E. faecium; [7]): 0.9
fold induction at 50 µM (E. cloacae; [8]): 1.4
fold induction at 50 µM (P. aeruginosa; [9]): 1.1

C#C[C@]1(OC(C)=O)CC[C@H]2[C@@H]3CCC4=C[C@@H](OC(C)=O)CC[C@@H]4[C@H]3CC[C@@]21C [Ethynodiol diacetate]
fold induction at 50 µM [1, 3]: 0.9
fold induction at 50 µM [2, 4]: 0.5
fold induction at 50 µM (E. coli; [5]): 0.8
fold induction at 50 µM (K. pneumoniae; [6]): 0.7
fold induction at 50 µM (E. faecium; [7]): 0.9
fold induction at 50 µM (E. cloacae; [8]): 1.1
fold induction at 50 µM (P. aeruginosa; [9]): 0.9

C#C[C@]1(O)CC[C@H]2[C@@H]3CCc4cc(OC)ccc4[C@H]3CC[C@@]21C [Ethynylestradiol 3-methyl ether]
AK-based Prestwick Library Screening Results, A. baumannii (fold increase in extracellular AK activity) [1, 17]: 1.1
AK-based Prestwick Library Screening Results, S. aureus (fold increase in extracellular AK activity) [2, 17]: 0.8
AK-based Prestwick Library Screening Results, E. coli (fold increase in extracellular AK activity) (E. coli; [17]): 1.2
AK-based Prestwick Library Screening Results, K. pneumoniae (fold increase in extracellular AK activity) (K. pneumoniae; [17]): 0.8
AK-based Prestwick Library Screening Results, E. faecium (fold increase in extracellular AK activity) (E. faecium; [17]): 0.9
AK-based Prestwick Library Screening Results, E. cloacae (fold increase in extracellular AK activity) (E. cloacae; [17]): 1.5
AK-based Prestwick Library Screening Results, P. aeruginosa (fold increase in extracellular AK activity) (P. aeruginosa; [17]): 1.1

CC(O)(P(=O)(O)O)P(=O)(O)O [Etidronic acid, disodium salt]
fold induction at 50 µM [1, 10]: 1.2
fold induction at 50 µM [2, 11]: 1.2
fold induction at 50 µM (E. coli; [12]): 1.3
fold induction at 50 µM (K. pneumoniae; [13]): 1
fold induction at 50 µM (E. faecium; [14]): 1
fold induction at 50 µM (E. cloacae; [15]): 1.4
fold induction at 50 µM (P. aeruginosa; [16]): 1.1

CCc1cccc(CC)c1NC(=O)CN(CC(=O)O)CC(=O)O [Etifenin]
fold induction at 50 µM ([1]; planktonic A. baumannii, cutoff for positive-scoring molecules 3-fold increase, read-out: AK-based Prestwick Library Screening Results, A. baumannii (increase in extracellular AK activity)): 0.9
fold induction at 50 µM ([2]; planktonic S. aureus, cutoff for positive-scoring molecules 3-fold increase, read-out: AK-based Prestwick Library Screening Results, S. aureus (increase in extracellular AK activity)): 0.5
fold induction at 50 µM (E. coli; planktonic E. coli, cutoff for positive-scoring molecules 3-fold increase, read-out: AK-based Prestwick Library Screening Results, E. coli (increase in extracellular AK activity)): 1.1
fold induction at 50 µM (K. pneumoniae; planktonic K. pneumoniae, cutoff for positive-scoring molecules 3-fold increase, read-out: AK-based Prestwick Library Screening Results, K. pneumoniae (increase in extracellular AK activity)): 0.8
fold induction at 50 µM (E. faecium; planktonic E. faecium, cutoff for positive-scoring molecules 3-fold increase, read-out: AK-based Prestwick Library Screening Results, E. faecium (increase in extracellular AK activity)): 0.9
fold induction at 50 µM (E. cloacae; planktonic E. cloacae, cutoff for positive-scoring molecules 3-fold increase, read-out: AK-based Prestwick Library Screening Results, E. cloacae (increase in extracellular AK activity)): 1
fold induction at 50 µM (P. aeruginosa; planktonic P. aeruginosa, cutoff for positive-scoring molecules 3-fold increase, read-out: AK-based Prestwick Library Screening Results, P. aeruginosa (increase in extracellular AK activity)): 0.9
